Measured values: PubChem BioAssay AID1963825 (Molecular Pharmacology Branch, DTP, NCI, 2024)

Experiment: Anticancer human tumor 997537-175-T-J1-PDC patient-derived colon adenocarcinoma cell line growth inhibition [POLQ]
Details: 997537-175-T-J1-PDC complex spheroid viability, combination with POLQ inhibitors; for IC50: curve of first compound; for viability, T/C: stronger effect = lower value
Method in brief: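 PDC + HUVEC + MSC complex spheroids; POLQ inhibitors ± partner drugs; top conc. at/near clinical Cmax, else 10 microM (SN-38 1 microM), half-log dilutions; 37 degrees C, 5% CO2.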

[1] = second compound 0.0316 µM, first compound 0.0316 µM
[2] = second compound 0.0316 µM, first compound 0.1 µM
[3] = second compound 0.0316 µM, first compound 0.316 µM
[4] = second compound 0.0316 µM, first compound 1 µM
[5] = second compound 0.0316 µM, first compound 3.16 µM
[6] = second compound 0.0316 µM, first compound 10 µM
[7] = second compound 0.1 µM, first compound 0.0316 µM
[8] = second compound 0.1 µM, first compound 0.1 µM
[9] = second compound 0.1 µM, first compound 0.316 µM
[10] = second compound 0.1 µM, first compound 1 µM
[11] = second compound 0.1 µM, first compound 3.16 µM
[12] = second compound 0.1 µM, first compound 10 µM
[13] = second compound 0.316 µM, first compound 0.0316 µM
[14] = second compound 0.316 µM, first compound 0.1 µM
[15] = second compound 0.316 µM, first compound 0.316 µM
[16] = second compound 0.316 µM, first compound 1 µM
[17] = second compound 0.316 µM, first compound 3.16 µM
[18] = second compound 0.316 µM, first compound 10 µM
[19] = second compound 1 µM, first compound 0.0316 µM
[20] = second compound 1 µM, first compound 0.1 µM
[21] = second compound 1 µM, first compound 0.316 µM
[22] = second compound 1 µM, first compound 1 µM
[23] = second compound 1 µM, first compound 3.16 µM
[24] = second compound 1 µM, first compound 10 µM
[25] = second compound 3.16 µM, first compound 0.0316 µM
[26] = second compound 3.16 µM, first compound 0.1 µM
[27] = second compound 3.16 µM, first compound 0.316 µM
[28] = second compound 3.16 µM, first compound 1 µM
[29] = second compound 3.16 µM, first compound 3.16 µM
[30] = second compound 3.16 µM, first compound 10 µM
[31] = second compound 10 µM, first compound 0.0316 µM
[32] = second compound 10 µM, first compound 0.1 µM
[33] = second compound 10 µM, first compound 0.316 µM
[34] = second compound 10 µM, first compound 1 µM
[35] = second compound 10 µM, first compound 3.16 µM
[36] = second compound 10 µM, first compound 10 µM
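Note: luminescence signal used as a surrogate for viable cells; spheroids exposed to drugs for seven days before readout.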

SMILES: C=CC(=O)N1CCN(c2nc(=O)n(-c3c(C)ccnc3C(C)C)c3nc(-c4c(O)cccc4F)c(F)cc23)C(C)C1 (stereo not given) + Nc1ccc(C#CCN(C(=O)Cc2ncc(C(F)(F)F)cc2C(F)(F)F)c2ccc(F)cc2)nn1
- IC50 (second compound 0.0316 µM): > 10 µM
- IC50 (second compound 0.1 µM): > 10 µM
- IC50 (second compound 0.316 µM): > 10 µM
- IC50 (second compound 1 µM): > 10 µM
- IC50 (second compound 3.16 µM): > 10 µM
- IC50 (second compound 10 µM): > 10 µM
- viability, T/C [1]: 106%
- viability, T/C [2]: 97.1%
- viability, T/C [3]: 95.4%
- viability, T/C [4]: 108%
- viability, T/C [5]: 93.8%
- viability, T/C [6]: 100%
- viability, T/C [7]: 103%
- viability, T/C [8]: 91.1%
- viability, T/C [9]: 102%
- viability, T/C [10]: 96.7%
- viability, T/C [11]: 111%
- viability, T/C [12]: 107%
- viability, T/C [13]: 96.6%
- viability, T/C [14]: 102%
- viability, T/C [15]: 103%
- viability, T/C [16]: 101%
- viability, T/C [17]: 90.9%
- viability, T/C [18]: 94%
- viability, T/C [19]: 102%
- viability, T/C [20]: 111%
- viability, T/C [21]: 109%
- viability, T/C [22]: 97.2%
- viability, T/C [23]: 96.9%
- viability, T/C [24]: 97.6%
- viability, T/C [25]: 96.3%
- viability, T/C [26]: 106%
- viability, T/C [27]: 103%
- viability, T/C [28]: 96.8%
- viability, T/C [29]: 106%
- viability, T/C [30]: 98.2%
- viability, T/C [31]: 101%
- viability, T/C [32]: 106%
- viability, T/C [33]: 104%
- viability, T/C [34]: 95.3%
- viability, T/C [35]: 97.6%
- viability, T/C [36]: 90.8%

SMILES: CC1COCCN1c1cc(-c2ccnn2C)c2ccnc(-c3ccn[nH]3)c2n1 (stereo not given) + Nc1ccc(C#CCN(C(=O)Cc2ncc(C(F)(F)F)cc2C(F)(F)F)c2ccc(F)cc2)nn1
- IC50 (second compound 0.0316 µM): > 10 µM
- IC50 (second compound 0.1 µM): 3.16 µM
- IC50 (second compound 0.316 µM): > 10 µM
- IC50 (second compound 1 µM): > 10 µM
- IC50 (second compound 3.16 µM): 3.16 µM
- IC50 (second compound 10 µM): 0.305 µM
- viability, T/C [1]: 103%
- viability, T/C [2]: 83.6%
- viability, T/C [3]: 58.3%
- viability, T/C [4]: 49.4%
- viability, T/C [5]: 36.8%
- viability, T/C [6]: 71.6%
- viability, T/C [7]: 101%
- viability, T/C [8]: 92.2%
- viability, T/C [9]: 38.2%
- viability, T/C [10]: 49.5%
- viability, T/C [11]: 48.3%
- viability, T/C [12]: 69.6%
- viability, T/C [13]: 99.1%
- viability, T/C [14]: 90.6%
- viability, T/C [15]: 51.4%
- viability, T/C [16]: 42.5%
- viability, T/C [17]: 52%
- viability, T/C [18]: 65.8%
- viability, T/C [19]: 93.1%
- viability, T/C [20]: 76.1%
- viability, T/C [21]: 39.4%
- viability, T/C [22]: 75.2%
- viability, T/C [23]: 50%
- viability, T/C [24]: 53.4%
- viability, T/C [25]: 99.2%
- viability, T/C [26]: 84.3%
- viability, T/C [27]: 36%
- viability, T/C [28]: 28.6%
- viability, T/C [29]: 52.5%
- viability, T/C [30]: 82%
- viability, T/C [31]: 83.5%
- viability, T/C [32]: 75.3%
- viability, T/C [33]: 39.2%
- viability, T/C [34]: 32.5%
- viability, T/C [35]: 57.5%
- viability, T/C [36]: 67.5%

SMILES: CCc1cc2c(N3CCc4c(cc(Cn5ccnc5)cc4-c4cn(C)nc4C(F)(F)F)C3=O)cc(C)nc2c(OC)n1 + Nc1ccc(C#CCN(C(=O)Cc2ncc(C(F)(F)F)cc2C(F)(F)F)c2ccc(F)cc2)nn1
- IC50 (second compound 0.0316 µM): > 10 µM
- IC50 (second compound 0.1 µM): > 10 µM
- IC50 (second compound 0.316 µM): > 10 µM
- IC50 (second compound 1 µM): > 10 µM
- IC50 (second compound 3.16 µM): > 10 µM
- IC50 (second compound 10 µM): > 10 µM
- viability, T/C [1]: 96%
- viability, T/C [2]: 98.5%
- viability, T/C [3]: 98.1%
- viability, T/C [4]: 86.8%
- viability, T/C [5]: 76%
- viability, T/C [6]: 67.4%
- viability, T/C [7]: 88.7%
- viability, T/C [8]: 97%
- viability, T/C [9]: 77.7%
- viability, T/C [10]: 79.6%
- viability, T/C [11]: 68.3%
- viability, T/C [12]: 74.9%
- viability, T/C [13]: 93.4%
- viability, T/C [14]: 87.3%
- viability, T/C [15]: 99.5%
- viability, T/C [16]: 96.5%
- viability, T/C [17]: 84%
- viability, T/C [18]: 77.5%
- viability, T/C [19]: 96.4%
- viability, T/C [20]: 103%
- viability, T/C [21]: 84%
- viability, T/C [22]: 80.9%
- viability, T/C [23]: 78.9%
- viability, T/C [24]: 51%
- viability, T/C [25]: 102%
- viability, T/C [26]: 103%
- viability, T/C [27]: 99.7%
- viability, T/C [28]: 89.7%
- viability, T/C [29]: 65.4%
- viability, T/C [30]: 73.7%
- viability, T/C [31]: 105%
- viability, T/C [32]: 104%
- viability, T/C [33]: 87.6%
- viability, T/C [34]: 96.8%
- viability, T/C [35]: 71.8%
- viability, T/C [36]: 76.7%

SMILES: COc1cc2cc(C(=O)CCC(=O)O)sc2cc1OC + Nc1ccc(C#CCN(C(=O)Cc2ncc(C(F)(F)F)cc2C(F)(F)F)c2ccc(F)cc2)nn1
- IC50 (second compound 0.0316 µM): > 10 µM
- IC50 (second compound 0.1 µM): > 10 µM
- IC50 (second compound 0.316 µM): > 10 µM
- IC50 (second compound 1 µM): > 10 µM
- IC50 (second compound 3.16 µM): > 10 µM
- IC50 (second compound 10 µM): > 10 µM
- viability, T/C [1]: 107%
- viability, T/C [2]: 107%
- viability, T/C [3]: 109%
- viability, T/C [4]: 99.7%
- viability, T/C [5]: 96.8%
- viability, T/C [6]: 96.7%
- viability, T/C [7]: 91.2%
- viability, T/C [8]: 102%
- viability, T/C [9]: 98.2%
- viability, T/C [10]: 108%
- viability, T/C [11]: 101%
- viability, T/C [12]: 105%
- viability, T/C [13]: 99.1%
- viability, T/C [14]: 105%
- viability, T/C [15]: 109%
- viability, T/C [16]: 98%
- viability, T/C [17]: 91.8%
- viability, T/C [18]: 95.4%
- viability, T/C [19]: 94.4%
- viability, T/C [20]: 89.5%
- viability, T/C [21]: 82%
- viability, T/C [22]: 105%
- viability, T/C [23]: 96.5%
- viability, T/C [24]: 89.9%
- viability, T/C [25]: 105%
- viability, T/C [26]: 101%
- viability, T/C [27]: 97.5%
- viability, T/C [28]: 86.1%
- viability, T/C [29]: 100%
- viability, T/C [30]: 92.5%
- viability, T/C [31]: 101%
- viability, T/C [32]: 91.4%
- viability, T/C [33]: 106%
- viability, T/C [34]: 111%
- viability, T/C [35]: 101%
- viability, T/C [36]: 107%

SMILES: COc1ccc([C@@H](O)c2cc(-c3ncnc4cc(N5CCOCC5)ccc34)c(F)cc2Cl)nn1 + Nc1ccc(C#CCN(C(=O)Cc2ncc(C(F)(F)F)cc2C(F)(F)F)c2ccc(F)cc2)nn1
- IC50 (second compound 0.0316 µM): > 10 µM
- IC50 (second compound 0.1 µM): > 10 µM
- IC50 (second compound 0.316 µM): > 10 µM
- IC50 (second compound 1 µM): > 10 µM
- IC50 (second compound 3.16 µM): > 10 µM
- IC50 (second compound 10 µM): > 10 µM
- viability, T/C [1]: 95%
- viability, T/C [2]: 110%
- viability, T/C [3]: 100%
- viability, T/C [4]: 101%
- viability, T/C [5]: 85%
- viability, T/C [6]: 74.3%
- viability, T/C [7]: 98.8%
- viability, T/C [8]: 110%
- viability, T/C [9]: 99%
- viability, T/C [10]: 98.3%
- viability, T/C [11]: 71.5%
- viability, T/C [12]: 71%
- viability, T/C [13]: 110%
- viability, T/C [14]: 109%
- viability, T/C [15]: 91%
- viability, T/C [16]: 99.1%
- viability, T/C [17]: 96.1%
- viability, T/C [18]: 65.6%
- viability, T/C [19]: 96%
- viability, T/C [20]: 98.2%
- viability, T/C [21]: 94.7%
- viability, T/C [22]: 91.6%
- viability, T/C [23]: 79.3%
- viability, T/C [24]: 94.2%
- viability, T/C [25]: 107%
- viability, T/C [26]: 99.1%
- viability, T/C [27]: 96.7%
- viability, T/C [28]: 96.6%
- viability, T/C [29]: 87.6%
- viability, T/C [30]: 82.1%
- viability, T/C [31]: 99.5%
- viability, T/C [32]: 107%
- viability, T/C [33]: 95.7%
- viability, T/C [34]: 95.8%
- viability, T/C [35]: 85.3%
- viability, T/C [36]: 92.7%
